The target of this assay is CDK2 (UniProt P24941). In words: Enzyme Assay.

Broadly, the IC50 is the concentration that inhibits the measured activity by half. Low values mean inhibition by little substance, high ones a need for much substance. In turn, `NS(=O)(=O)c1ccc(N/C=C2\C(=O)Nc3ncc(Br)cc32)cc1` had an IC50 of 10 to 100 nM. Molecule `NS(=O)(=O)c1ccc(N/C=C2\C(=O)Nc3nc(Cl)ccc32)cc1` showed an IC50 of 100 to 1000 nM.

As to `O=C1Nc2ncc(-c3ccco3)cc2/C1=C/Nc1ccc2cn[nH]c2c1`, the IC50 fell in the range of 1000 to 10000 nM. The same measure for `O=C1Nc2ncc(Br)cc2/C1=C/Nc1ccc2ncccc2c1`: 10 to 100 nM; for `CCOC(=O)c1cnc2c(c1)/C(=C/Nc1ccc(S(N)(=O)=O)cc1)C(=O)N2`: 10 to 100 nM; for `NS(=O)(=O)c1ccc(N/C=C2\C(=O)Nc3ncc(-c4ccsc4)cc32)cc1`: 100 to 1000 nM. The same measure for `O=C1Nc2nc(Cl)ccc2/C1=C/Nc1ccc2cn[nH]c2c1`: 100 to 1000 nM; for `CCOC(=O)c1cnc2c(c1)/C(=C\Nc1ccc3ncccc3c1)C(=O)N2`: 100 to 1000 nM; for `NS(=O)(=O)c1ccc(N/C=C2\C(=O)Nc3ncc(-c4ccco4)cc32)cc1`: 10 to 100 nM. `NS(=O)(=O)c1ccc(N/C=C2\C(=O)Nc3ccncc32)cc1` showed an IC50 of 10 to 100 nM. The same measure for `NS(=O)(=O)c1ccc(N/C=C2\C(=O)Nc3cnccc32)cc1`: 10 to 100 nM. Under `O=C1Nc2ncc(-c3ccsc3)cc2/C1=C/Nc1ccc2cn[nH]c2c1` stands 100 to 1000 nM.

Molecule `NS(=O)(=O)c1ccc(N/C=C2\C(=O)Nc3ncccc32)cc1` came in with an IC50 of 100 to 1000 nM. The same measure for `NS(=O)(=O)c1ccc(N/C=C2\C(=O)Nc3ncc(-c4ccccc4)cc32)cc1`: 1000 to 10000 nM; for `CCOC(=O)c1cnc2c(c1)/C(=C/Nc1ccc3cn[nH]c3c1)C(=O)N2`: 10 to 100 nM. The same measure for `O=C1Nc2ncc(Br)cc2/C1=C/Nc1ccc2cn[nH]c2c1`: 10 to 100 nM.

Source of the values: the Kinase Knowledgebase extract (Sharma et al. 2016).
